Measured values: USRE49351E1, “Cytoprotective agent” (Biogen MA Inc., priority 2009, dated 2023)
Counter-ions that a name gives are not always drawn.

Key:
[1] = system: Mongolian gerbil cerebral infarction model; test: Mongolian gerbil cerebral infarction model (acetic acid-induced thrombus): infarction area percentage and neurological symptom; format: in vivo; conditions: mean ± SE, n=6; for Infarction area: evaluated 24 h; for Neurological scores: score 0-4 at 24 h
Excerpt: Anesthesia was induced to a male Mongolian gerbil (body weight 55 to 65 g) by inhalation of 5% isoflurane (trade name Escain, Mylan Inc.), and maintained with 1 to 1.5% isoflurane. The Mongolian gerbil was fixed in a dorsal position, and the neck was dehaired and then disinfected with 70% ethanol. After median incision of the neck, the right common carotid artery was detached, clamped to block the blood flow temporarily, and coated with 100% acetic acid by 30 reciprocating motions so as to produce a thrombus. The blood vessel was reopened after 10 min of the blockage of the blood flow to transfer the thrombus by the blood stream into the brain to make it ischemic and generate cerebral infarction. The operating field was closed with an instant adhesive (trade name Aron Alpha (Krazy Glue), Toagosei Co., Ltd.) and disinfected with 70% ethanol.
Twenty four hours after the initiation of the operation neurological symptoms were observed as an indicator for cerebral infarction. Many types of neurological symptoms specific to cerebral infarction, such as extension of a hindlimb or circling to one direction, have been reported. Applying a modified evaluation method of the method proposed by Longa, et al. (Stroke 1989; 20:84-91) postoperative neurological symptoms were evaluated as per: no deficit, 0; extension of limb, 1; circling to one direction, 2; incline posture, 3; diminished motion, 4.
With respect to statistical analysis, for multiple comparisons was conducted firstly one-way analysis of variance (ANOVA) and then a Bonferroni test was conducted, if significant difference is detected. Significant difference was positively recognized with significance level 5% (P<0.05). All the results are expressed in mean±standard error.
After the evaluation of neurological symptoms according to the above method, the animal was decapitated under anesthesia with isoflurane. The cranial bone was exfoliated of skin and opened, and, after scission of optic nerve, the brain was extirpated and dipped in a physiological saline solution to remove attached body hairs, etc. The extirpated brain was placed in a brain matrix (RBM-1000C, ASI Instruments) to carry out coronal slicing from the frontal pole at thickness of 2 mm. The slices were dipped in 2% 2,3,5-triphenyl-2H-tetrazolium chloride (TTC), and incubated for staining at 37° C. for 30 min in a CO2 incubator. The colorless TTC is reduced by hydrogen liberated by the action of dehydrogenase contained in a normal cell converting to dark red colored water-insoluble 1,3,5-triphenylformazan (TPF), so that the normal cell is stained. Unstained area (white area) was defined as an infarction area. Meanwhile, the corpus callosum, which is commissural fibers connecting the right and left cerebral hemispheres, is not stained and is white, and therefore image processing for the analyses as described below was conducted excluding the corpus callosum.
After staining images of the brain slices were taken by a digital camera under a stereoscopic microscope. For analysis of the infarction area percentage, an image analysis software Image J (Version 1.4) was used. Full, excluding the corpus callosum, images of the taken 2nd, 3rd, and 4th brain slice images were converted to grayscale. From the grayscale images a histogram for the whole brain as the object scope was obtained showing in the ordinate the frequency of occurrence (frequency) at certain brightness, and showing in the abscissa the brightness (0 to 255). The sum from 0 to 255 was defined as the area size of the whole brain, and the sum from 160 to 219 was defined as the area size of the infarction area. Then the infarction area percentage was determined according to the following formula using the total area size of the infarction areas and the total area size of the whole brain, of the 3 brain slice images. Statistical analysis was conducted as above. […]

[2] = H-ORAC (hydrophilic oxygen radical absorbance capacity) assay; format: biochemical; conditions: sodium salt aqueous solution, phosphate buffer pH 7.4
Description: (§1) To study the free radical scavenging activity of a triprenyl phenol compound, the following H-ORAC (hydrophilic oxygen radical absorbance capacity) assay, and modified H-ORAC (mH-ORAC) assay were conducted.
(§2) SMTP compounds evaluated by H-ORAC were used respectively in a form of a sodium salt aqueous solution, and the compounds evaluated by mH-ORAC were used respectively in a form of an acetone solution.
(§3) In H-ORAC a test compound was diluted appropriately with a buffer solution (75 mM phosphate buffer solution, pH 7.4) and used for measurement. In mH-ORAC a test compound was diluted appropriately by a 50% (v/v) acetone solution, prepared by diluting an acetone solution with water, to prepare a solution of 40-fold the final concentration. […] As for the reference material Trolox, 500 μM/buffer solution was diluted appropriately with a buffer solution.
(§4) To a 96-well microplate (transparent, flat bottom, black wall) 50 μL of a test compound solution or a Trolox solution was placed, and additionally 100 μL of a fluorescein 140 nM/buffer solution as a fluorescent substance was added (final concentration 70 nM), followed by incubation at 37° C. for […].
(§5) As a free radical generator, 50 μL of a 48 mM/buffer solution of 2,2′-azobis(amidinopropane)dihydrochloride was added (final concentration 12 mM), and fluorescence intensity at fluorescence wavelength of 535 nm with excitation wavelength of 485 nm was measured at 2 min intervals for 90 min. The calibration curve was prepared between the Trolox final concentrations of 5 to 15 μM. The measurement was conducted by changing the concentration with n=3, and plotted on a diagram with time on the abscissa and the fluorescence intensity on the ordinate. Therewith evaluation was made using the value obtained by reducing the area under the curve for the blank from the area under the curve for the sample. The result was expressed as an equivalent to Trolox.

[3] = modified H-ORAC (mH-ORAC) assay; format: biochemical; conditions: acetone solution, acetone final concentration 1.25%
Description: as §1, §2, §3, §4, §5

[4] = 1 mg/kg i.v., administration initiated 0 hr after ischemia
[5] = 1 mg/kg i.v., administration initiated 1 hr after ischemia
[6] = 10 mg/kg i.v., administration initiated 1 hr after ischemia
[7] = 3 mg/kg i.v., administration initiated 0 hr after ischemia
[8] = 3 mg/kg i.v., administration initiated 1 hr after ischemia
[9] = 3 mg/kg i.v., administration initiated 3 hr after ischemia

## CC1CNc2c(cccc2S(=O)(=O)N[C@@H](CCCNC(=N)N)C(=O)N2CC[C@@H](C)C[C@@H]2C(=O)O)C1 (stereo partly drawn) [argatroban]
[1]; [4]
  Infarction area: 10.0 ± 2.66%
  Neurological scores: 2.33 ± 0.61
[1]; [5]
  Infarction area: 12.1 ± 2.46%
  Neurological scores: 2.50 ± 0.50
[1]; [6]
  Infarction area: 11.5 ± 2.57%
  Neurological scores: 2.50 ± 0.56

## CC1=NN(c2ccccc2)C(=O)C1 [edaravone]
[1]; [5]
  Infarction area: 12.8 ± 2.87%
  Neurological scores: 3.17 ± 0.17
[1]; [7]
  Infarction area: 9.95 ± 3.22%
  Neurological scores: 1.50 ± 0.67
[1]; [8]
  Infarction area: 8.29 ± 1.61 %
  Neurological scores: 1.50 ± 0.67
[1]; [9]
  Infarction area: 12.3 ± 5.59%
  Neurological scores: 2.50 ± 0.56
[1]; [6]
  Infarction area: 9.29 ± 2.17%
  Neurological scores: 1.83 ± 0.65

## CC(C)=CCCC(C)=CCC[C@]1(C)Oc2c(c(O)cc3c2CN(c2ccc(S(=O)(=O)O)cc2)C3=O)C[C@@H]1O [SMTP-42]
[2]
  free radical scavenging activity, Trolox equivalent: 3.28 ± 0.25 molTE/mol

## CC(C)=CCC/C(C)=C/CCC1(C)Oc2c(c(O)cc3c2CN(C(Cc2ccccc2)C(=O)O)C3=O)CC1O (stereo not drawn) [SMTP-4]
[2]
  free radical scavenging activity, Trolox equivalent: 1.79 ± 0.02 molTE/mol

## CC(C)=CCC/C(C)=C/CC[C@]1(C)Oc2c(c(O)cc3c2CNC3=O)C[C@@H]1O [SMTP-0]
[3]
  free radical scavenging activity, Trolox equivalent: 7.76 ± 0.36 molTE/mol

## CSCC[C@@H](C(=O)O)N1Cc2c(cc(O)c3c2O[C@@](C)(CCC=C(C)CCC=C(C)C)[C@@H](O)C3)C1=O [SMTP-13]
[2]
  free radical scavenging activity, Trolox equivalent: 3.07 ± 0.51 molTE/mol

## CC(C)=CCCC(C)=CCC[C@]1(C)Oc2c(c(O)cc3c2CN([C@@H](Cc2ccc(O)cc2)C(=O)O)C3=O)C[C@@H]1O [SMTP-14]
[2]
  free radical scavenging activity, Trolox equivalent: 4.43 ± 0.49 molTE/mol

## CC(C)=CCC/C(C)=C/CC[C@]1(C)Oc2c(c(O)cc3c2CN(CCO)C3=O)C[C@@H]1O [SMTP-1]
[3]
  free radical scavenging activity, Trolox equivalent: 4.35 ± 0.55 molTE/mol

## CC(C)=CCCC(C)=CCCC1(C)Oc2c(c(O)cc3c2CN(CCCCC(C(=O)O)N2Cc4c(cc(O)c5c4OC(C)(CCC=C(C)CCC=C(C)C)C(O)C5)C2=O)C3=O)CC1O (stereo not drawn) [SMTP-8]
[3]
  free radical scavenging activity, Trolox equivalent: 1.69 ± 0.14 molTE/mol

## Clc1ccccc1CN1CCc2sccc2C1 [ticlopidine HCl]
[1]; [4]
  Infarction area: 8.83 ± 1.73%
  Neurological scores: 2.33 ± 0.42
[1]; [5]
  Infarction area: 13.1 ± 3.89%
  Neurological scores: 2.67 ± 0.56
[1]; [6]
  Infarction area: 9.84 ± 1.81%
  Neurological scores: 2.33 ± 0.42

## CC(C)=CCC/C(C)=C/CCC1(C)Oc2c(c(O)cc3c2CN([C@H](CC(C)C)C(=O)O)C3=O)CC1O (stereo partly drawn) [SMTP-5D]
[2]
  free radical scavenging activity, Trolox equivalent: 1.71 ± 0.20 molTE/mol
